# Experiments:
# HOP-92 = test: NCI-60 SRB growth assay; format: cell-based, human
# OVCAR-4 = test: NCI-60 SRB growth assay; format: cell-based, human
# RXF 393 = test: NCI-60 SRB growth assay; format: cell-based, human
# MDA-MB-231/ATCC = test: NCI-60 SRB growth assay; format: cell-based, human
# NCI/ADR-RES = test: NCI-60 SRB growth assay; format: cell-based, human
# MDA-MB-435 = test: NCI-60 SRB growth assay; format: cell-based, human
# M14 = test: NCI-60 SRB growth assay; format: cell-based, human; settings: M14
# HEK = test: MTT cytotoxicity assay; format: cell-based; settings: Homo sapiens, HEK293, 48 h
# SF-268 = test: NCI-60 SRB growth assay; format: cell-based, human
# T-47D = test: NCI-60 SRB growth assay; format: cell-based, human
# SF-295 = test: NCI-60 SRB growth assay; format: cell-based, human
# [1] = system: oligo-2: d(CGATGTACATCG)2; test: Fluorescence titration; format: binding; settings: 20 °C, pH 7.2
# UO-31 = test: NCI-60 SRB growth assay; format: cell-based, human
# SN12C = test: NCI-60 SRB growth assay; format: cell-based, human
# CCRF-CEM = test: NCI-60 SRB growth assay; format: cell-based, human
# SW-620 = test: NCI-60 SRB growth assay; format: cell-based, human; settings: Homo sapiens
# IGROV1 = test: NCI-60 SRB growth assay; format: cell-based, human
# SK-MEL-28 = test: NCI-60 SRB growth assay; format: cell-based, human
# MOLT-4 = test: NCI-60 SRB growth assay; format: cell-based, human
# SK-MEL-5 = test: NCI-60 SRB growth assay; format: cell-based, human
# 786-0 = test: NCI-60 SRB growth assay; format: cell-based, human
# NCI-H460 = test: NCI-60 SRB growth assay; format: cell-based, human
# K-562 = test: NCI-60 SRB growth assay; format: cell-based, human; settings: Homo sapiens
# [2] = system: oligo-2: d(CGATGTACATCG)2; test: UV thermal denaturation; format: binding
# NIH3T3 = test: MTT cytotoxicity assay; format: cell-based; settings: Mus musculus, NIH3T3, 48 h
# HCC-2998 = test: NCI-60 SRB growth assay; format: cell-based, human
# ACHN = test: NCI-60 SRB growth assay; format: cell-based, human
# OVCAR-3 = test: NCI-60 SRB growth assay; format: cell-based, human
# MALME-3M = test: NCI-60 SRB growth assay; format: cell-based, human
# SR = test: NCI-60 SRB growth assay; format: cell-based, human
# HL-60(TB) = test: cells; settings: Homo sapiens
# NCI-H23 = test: NCI-60 SRB growth assay; format: cell-based, human
# U251 = test: NCI-60 SRB growth assay; format: cell-based, human
smiles,measurement,setting,value
"CCCCN1CCN(c2ccc3[nH]c(-c4ccc5[nH]c(-c6ccc(C(F)(F)F)cc6)nc5c4)nc3c2)CC1 [12b, 5-(5-(4-Butylpiperazin-1-yl)-1H-benzo[d]imidazol-2-yl)2(4(trifluoromethyl)phenyl)-1H-benzo[d]imidazole]",TGI,HOP-92; HOP-92,2780 nM
same,GI50,"HOP-92; Homo sapiens, HOP-92",1180 nM
same,CC50,"HOP-92; Homo sapiens, HOP-92, read-out: LC50",6500 nM
same,GI50,"OVCAR-4; Homo sapiens, OVCAR-4",600 nM
same,CC50,"OVCAR-4; Homo sapiens, OVCAR-4, read-out: LC50",5200 nM
same,TGI,OVCAR-4; OVCAR-4,1800 nM
same,GI50,"RXF 393; Homo sapiens, RXF 393",470 nM
same,TGI,RXF 393; RXF393,1500 nM
same,GI50,"MDA-MB-231/ATCC; Homo sapiens, MDA-MB-231",1460 nM
same,CC50,"MDA-MB-231/ATCC; Homo sapiens, MDA-MB-231, read-out: LC50",5840 nM
same,TGI,MDA-MB-231/ATCC; MDA-MB-231,2920 nM
same,TGI,NCI/ADR-RES,57700 nM
same,GI50,NCI/ADR-RES; Homo sapiens,2100 nM
same,CC50,"NCI/ADR-RES; Homo sapiens, read-out: LC50",> 100000 nM
same,GI50,"MDA-MB-435; Homo sapiens, MDA-MB-435",1400 nM
same,CC50,"MDA-MB-435; Homo sapiens, MDA-MB-435, read-out: LC50",5500 nM
same,TGI,MDA-MB-435; MDA-MB-435,2800 nM
same,GI50,M14; Homo sapiens,370 nM
same,TGI,M14,2400 nM
same,IC50,HEK,2700 nM
same,GI50,"SF-268; Homo sapiens, SF-268",1700 nM
same,CC50,"SF-268; Homo sapiens, SF-268, read-out: LC50",6400 nM
same,TGI,SF-268; SF-268,3300 nM
same,GI50,"T-47D; Homo sapiens, T47D",1240 nM
same,TGI,T-47D; T-47D,3230 nM
same,GI50,"SF-295; Homo sapiens, SF-295",1340 nM
same,CC50,"SF-295; Homo sapiens, SF-295, read-out: LC50",5400 nM
same,TGI,SF-295; SF-265,2700 nM
same,Ka binding affinity with oligo-2,[1],2 × 10^6 M^1
same,GI50,"UO-31; Homo sapiens, UO-31",1770 nM
same,CC50,"UO-31; Homo sapiens, UO-31, read-out: LC50",5900 nM
same,TGI,UO-31; UO-31,3240 nM
same,GI50,"SN12C; Homo sapiens, SN12C",1540 nM
same,TGI,SN12C; SN12c,3020 nM
same,TGI,CCRF-CEM,1030 nM
same,GI50,CCRF-CEM; Homo sapiens,300 nM
same,CC50,"CCRF-CEM; Homo sapiens, read-out: LC50",5040 nM
same,GI50,SW-620; SW-620,210 nM
same,CC50,"SW-620; SW-620, read-out: LC50",450 nM
same,GI50,"IGROV1; Homo sapiens, IGROV-1",1700 nM
same,TGI,IGROV1; IGROV1,3400 nM
same,GI50,"SK-MEL-28; Homo sapiens, SK-MEL-28",1700 nM
same,CC50,"SK-MEL-28; Homo sapiens, SK-MEL-28, read-out: LC50",5900 nM
same,TGI,SK-MEL-28; SK-MEL-28,3100 nM
same,GI50,"MOLT-4; Homo sapiens, MOLT-4",1070 nM
same,CC50,"MOLT-4; Homo sapiens, MOLT-4, read-out: LC50",6300 nM
same,TGI,MOLT-4; MOLT-4,2500 nM
same,GI50,"SK-MEL-5; Homo sapiens, SK-MEL-5",1600 nM
same,CC50,"SK-MEL-5; Homo sapiens, SK-MEL-5, read-out: LC50",6200 nM
same,TGI,SK-MEL-5; SK-MEL-5,3200 nM
same,TGI,786-0; 786–0,3040 nM
same,GI50,"786-0; Homo sapiens, 786-0",1470 nM
same,GI50,"NCI-H460; Homo sapiens, NCI-H460",230 nM
same,CC50,"NCI-H460; Homo sapiens, NCI-H460, read-out: LC50",1620 nM
same,TGI,NCI-H460; NCI–H460,500 nM
same,GI50,K-562; K562,220 nM
same,CC50,"K-562; K562, read-out: LC50",> 100000 nM
same,ΔTm,[2]; r = 0.5,1 °C
same,Tm,"[2]; r = 0.5, oligo 2.5 μM",57.9 °C
same,Tm,[2]; r = 1,58.9 °C
same,ΔTm,[2]; r = 1,2 °C
same,Tm,[2]; r = 1.5,58.9 °C
same,ΔTm,[2]; r = 1.5,2 °C
same,Tm,[2]; r = 2.0,59.9 °C
same,ΔTm,[2]; r = 2.0,3 °C
same,IC50,NIH3T3,3200 nM
same,TGI,HCC-2998; HCC-2998,3500 nM
same,GI50,"HCC-2998; Homo sapiens, HCC 2998",1800 nM
same,CC50,"HCC-2998; Homo sapiens, HCC 2998, read-out: LC50",6600 nM
same,TGI,ACHN,2600 nM
same,GI50,ACHN; Homo sapiens,1320 nM
same,CC50,"ACHN; Homo sapiens, read-out: LC50",5140 nM
same,GI50,"OVCAR-3; Homo sapiens, OVCAR-3",210 nM
same,CC50,"OVCAR-3; Homo sapiens, OVCAR-3, read-out: LC50",730 nM
same,TGI,OVCAR-3; OVCAR-3,400 nM
same,GI50,"MALME-3M; Homo sapiens, Malme-3M",1400 nM
same,TGI,MALME-3M; MALME-3M,3000 nM
same,TGI,SR,650 nM
same,GI50,SR; Homo sapiens,260 nM
same,GI50,HL-60(TB); HL-60,1200 nM
same,CC50,"HL-60(TB); HL-60, read-out: LC50",6600 nM
same,GI50,"NCI-H23; Homo sapiens, NCI-H23",1650 nM
same,CC50,"NCI-H23; Homo sapiens, NCI-H23, read-out: LC50",6800 nM
same,TGI,NCI-H23; NCI–H23,3360 nM
same,GI50,"U251; Homo sapiens, U-251",240 nM
same,TGI,U251; U251,560 nM

# — article PMC8793051 (ACS Omega, 2022)
